{"source": "patent US7820405B2", "about": "“Specific bacterial inclusions in bone marrow cells indicate systematic lupus erthematosus, and treatment for lupus” (Sphingomanas Research Partners, L.P., priority 2005, dated 2010)", "test_system": "intra-erythrocytic bacterial structures (Mycoplasma haemosapiens)", "type": "in vivo, human", "conditions": "Patient A, during doxycycline 100 mg twice daily; declined from about 16% before therapy"}
{"smiles": "C[C@H]1c2cccc(O)c2C(=O)C2=C(O)[C@]3(O)C(=O)C(C(N)=O)=C(O)[C@@H](N(C)C)[C@@H]3[C@@H](O)[C@@H]21", "note": "[doxycycline]", "values": [{"measurement": "percentage of parasitized erythrocytes", "value": "approximately 8%"}]}
